Consider two molecules from US5807855A, “1-piperazino-1,2-dihydroindene derivatives” (priority 1992, dated 1998).

One data set deals with T1, DA D2 receptors (Rattus norvegicus, UniProt P61169).
T1 construct: DA D2 receptors in rat striatal membranes; from tissue; host or cells: rat striatal membranes
Description: Inhibition of 3H-spiperone binding to DA D2 receptors in rat striatal membranes. The settings on record: rat striatal membranes, 3H-spiperone; read-out: Receptor Binding; IC50, D2 3H-Spi.

In data set [1] the target is T2, DA D1 receptor (Rattus norvegicus, UniProt P18901). Description: biochemical. The data set is classed as binding. The settings on record: Receptor Binding; IC50, D1 3H-SCH.
Data set [2] deals with T2, DA D1 receptor. Description: Antagonism of SK&F 38393-induced circling behavior in rats with unilateral 6-OHDA lesions. It is filed as in vivo. Also noted: circling behavior in rats with unilateral 6-OHDA lesions; from tissue; host or cells: living rats with unilateral 6-OHDA lesions. Particulars: 2 h. The procedure:
Antagonism of SK&F 38393-induced circling behavior in rats with unilateral 6-OHDA lesions.
This test is a test for the DA D1 receptor antagonistic effect in vivo.
The experiments were performed as described by Arnt, J. and Hyttel, J. J. Neural. Transm. 1986, 67, 225-240. The experiments were done 2-9 months after lesioning when stable contralateral circling response to 2,3,4,5-tetrahydro-7,8-dihydroxy-1-phenyl-1H-3-benzazepine, hydrochloride (SK&F 38393) (4.3 μmol/kg=1.4 mg/kg) were obtained. The test compounds were injected 2 h before administration of SK&F 38393. Antagonistic effect were calculated as percent inhibition of control responses for each rat. Four to eight animals were used per dose.

Another data set deals with T3, 5-HT2 receptors (Rattus norvegicus, UniProt P14842).
T3 construct: 5-HT2 receptors in membranes from rat cortex; from tissue; host or cells: membranes from rat cortex
Briefly: Inhibition of 3H-ketanserin binding to 5-HT2 receptors in membranes from rat cortex. The settings on record: Receptor Binding, IC50, 5-HT2 3H-Ket. How it is done:
Receptor binding studies.
5-HT2 receptors. Inhibition of ^3 H-ketanserin binding to 5-HT2 receptors in membranes from rat cortex was determined as described by Hyttel, J. Acta. Pharmacol. Toxicol.

In data set [3] the test system is DA uptake. Briefly: Inhibition of DA uptake in vitro. The data set is classed as biochemical. How it is done:
Inhibition of DA Uptake in Vitro was determined as described by K. P. B.o slashed.ges.o slashed., J. Med. Chem. 1983, 26, 935-947.

A short description of data set [4]: Cataleptogenic effect in rats. Particulars: rat, in vivo, maximum effect 1-6 h after administration, read-out: ED50 in the catalepsy test. How it is done:
Cataleptogenic effect in rats.
Catalepsy was measured every hour 1-6 h after test drug administration on a vertical wire grid and defined as being present after at least 15-simmobility. The maximum effect between 1-6 h after administration was reported. A total of 8-12 animals were used per dose.

The test system of data set [5] is DA uptake. The settings on record: cited from earlier work.

T2 sequence (P18901 whole entry): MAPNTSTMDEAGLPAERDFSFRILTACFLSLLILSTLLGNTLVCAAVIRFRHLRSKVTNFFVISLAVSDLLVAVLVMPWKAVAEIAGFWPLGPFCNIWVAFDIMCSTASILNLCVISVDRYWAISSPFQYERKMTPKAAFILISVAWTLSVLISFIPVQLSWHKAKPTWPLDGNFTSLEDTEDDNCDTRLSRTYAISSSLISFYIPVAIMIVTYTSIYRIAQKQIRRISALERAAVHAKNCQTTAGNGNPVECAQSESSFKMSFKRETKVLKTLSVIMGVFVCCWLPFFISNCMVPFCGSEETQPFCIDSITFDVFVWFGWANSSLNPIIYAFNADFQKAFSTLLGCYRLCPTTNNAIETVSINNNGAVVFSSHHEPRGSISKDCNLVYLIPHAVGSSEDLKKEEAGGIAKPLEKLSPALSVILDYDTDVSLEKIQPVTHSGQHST
T3 sequence (P14842 whole entry): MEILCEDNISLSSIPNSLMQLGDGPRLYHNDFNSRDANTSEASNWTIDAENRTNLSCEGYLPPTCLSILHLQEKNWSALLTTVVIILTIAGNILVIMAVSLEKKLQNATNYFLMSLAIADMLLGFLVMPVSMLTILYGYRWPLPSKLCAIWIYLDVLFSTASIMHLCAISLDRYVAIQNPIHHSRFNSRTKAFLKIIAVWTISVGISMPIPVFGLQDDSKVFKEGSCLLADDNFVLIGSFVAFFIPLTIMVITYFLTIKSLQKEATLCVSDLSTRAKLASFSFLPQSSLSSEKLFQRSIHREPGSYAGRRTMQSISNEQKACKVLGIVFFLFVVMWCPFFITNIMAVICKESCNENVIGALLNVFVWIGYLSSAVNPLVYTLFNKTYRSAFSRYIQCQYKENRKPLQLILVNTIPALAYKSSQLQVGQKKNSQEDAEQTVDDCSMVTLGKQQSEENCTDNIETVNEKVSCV
T1 sequence (P61169 whole entry): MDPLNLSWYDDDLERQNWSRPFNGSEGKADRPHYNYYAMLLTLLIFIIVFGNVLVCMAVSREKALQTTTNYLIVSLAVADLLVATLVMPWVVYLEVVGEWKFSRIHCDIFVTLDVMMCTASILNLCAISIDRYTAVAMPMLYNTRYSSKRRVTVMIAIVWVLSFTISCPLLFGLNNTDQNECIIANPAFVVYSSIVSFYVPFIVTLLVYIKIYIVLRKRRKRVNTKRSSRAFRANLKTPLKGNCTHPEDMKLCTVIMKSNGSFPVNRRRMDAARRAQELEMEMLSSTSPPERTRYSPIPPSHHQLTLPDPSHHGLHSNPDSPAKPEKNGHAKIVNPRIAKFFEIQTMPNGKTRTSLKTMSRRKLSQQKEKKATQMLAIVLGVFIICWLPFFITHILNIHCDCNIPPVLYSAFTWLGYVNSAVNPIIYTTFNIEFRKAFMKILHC

With `CN1CCN([C@@H]2C[C@@H](c3ccc(F)cc3)c3ccc(F)cc32)CC1(C)C` (racemic) [Compound 38, (±)-Trans-4-[6-fluoro-3-(4-fluorophenyl)-2,3-dihydro-1H-inden-1-yl]-1,2,2-trimethyl piperazine], the IC50 on DA D2 receptors was 11 nM; on DA D1 receptor [1] it was 0.88 nM; at 5-HT2 receptors it was 3.6 nM; with DA uptake [3], 9 nM. Besides, the ED50 on DA D1 receptor [2] is 0.5 µmol/kg; in data set [4] it was over 68 µmol/kg.

`COC(=O)[C@H]1[C@@H](OC(=O)c2ccccc2)C[C@@H]2CC[C@H]1N2C` [cocaine]: the “DA uptake inhibition (in words)” value with DA uptake [5] is “inhibitor of DA uptake”.
